Where two headings read alike, the source gives them in different places.
Test system: IRE1-XBP1s (XBP1-RLuc splicing reporter in HEK293 T-REx cells)
Test: IRE1-XBP1s activation assay (XBP1-RLuc splicing reporter, HEK293 T-REx cells, luminescence relative to thapsigargin)
Assay type: cell-based
Settings: 18 h, read-out: Activity (IRE1-XBP1s activation, luminescence as % signal relative to thapsigargin, % Tg)
Method: IRE1-XBP1s activation Assay: HEK293 T-REx cells stably expressing the XBP1-RLuc splicing reporter were treated with an IRE1-XBP1s activator provided herein (10 μM) in the presence or absence of the IRE1 active site inhibitor 4μ8C (32 μM) for 18 h. Luminescence was shown as the percentage signal relative to thapsigargin (Tg) (500 nM, 18 h).

[1] = compound 10 μM, HEK293 T-REx XBP1-RLuc reporter cells, relative to thapsigargin (Tg) 500 nM

Compound	activation at 10 µM [1] [%]	activation at 10 µM [%]
Cc1ccc(OCCN(C)C(=O)Cn2cc(NC(=O)CCOc3ccccc3OC(F)(F)F)cn2)cc1 [Compound 54]	30 to 50	–
Cc1ccc(OCCN(C)C(=O)Cn2cc(NC(=O)CCNc3ccc(C#N)cn3)cn2)cc1 [Compound 157]	< 30	–
Cc1ccc(OCCN(C)C(=O)Cn2cc(NC(=O)CCNc3nc(C)ncc3C(C)C)cn2)cc1 [Compound 210]	> 50	–
Cc1ccc(OCCN(C)C(=O)Cn2cc(NC(=O)CCNc3cnc(F)c(C)c3)cn2)cc1 [Compound 121]	> 50	–
Cc1ccc(OCCN(C)C(=O)Cn2cc(NC(=O)CCOc3ccc(F)cc3C)c(C)n2)cc1 [Compound 65]	< 30	–
Cc1ccc(OCCN(C)C(=O)Cn2cc(NC(=O)/C=C/Oc3cccnc3N)cn2)cc1 [Compound 237]	< 30	–
Cc1ccc(OCCN(C)C(=O)Cn2cc(NC(=O)CCNc3ccc4c(c3)OC(F)(F)O4)cn2)cc1 [Compound 290]	< 30	–
CC(C)c1cncc(F)c1OCCC(=O)Nc1cnn(CC(=O)N(C)CCOc2cnc(C(F)(F)F)cn2)c1 [Compound 278]	> 50	–
Cc1ccc(OCCN(C)C(=O)Cn2cc(NC(=O)CCCc3ccccc3)cn2)cc1 [Compound 92, N-(1-(2-(methyl(2-(p-tolyloxy)ethyl)amino)-2-oxoethyl)-1H-pyrazol-4-yl)-4-phenylbutanamide]	< 30	–
Cc1ccc(OCCN(C)C(=O)Cn2cc(NC(=O)CCNc3ccncc3)cn2)cc1 [Compound 155]	< 30	–
Cc1ccc(OCCN(C)C(=O)Cn2cc(NC(=O)CCNc3cc(N)ccn3)cn2)cc1 [Compound 202]	> 50	–
C#CCCC1(CCC(=O)Nc2ccc(OCCC(=O)Nc3cnn(CC(=O)N(C)CCOc4ccc(C)cc4)c3)nc2)N=N1 [Compound 234]	> 50	–
Cc1ccc(OCCN(C)C(=O)Cn2cc(NC(=O)CCNc3cncc(N)c3)cn2)cc1 [Compound 119]	< 30	–
Cc1cc(F)ccc1OCCC(=O)Nc1cnn(CC(=O)N(C)CCOc2ccc(C(=O)O)cc2)c1 [Compound 88]	< 30	–
Cc1ccc(OCCN(C)C(=O)Cn2cc(NC(=O)CCNc3ccc(OCc4ccccc4)cn3)cn2)cc1 [Compound 165]	< 30	–
Cc1ccc(OCCN(C)C(=O)Cn2cc(NC(=O)[C@@H](C)CNc3ccc(F)nc3C)cn2)cc1 [Compound 220]	30 to 50	–
Cc1ccc(OCCN(C)C(=O)Cn2cc(NC(=O)CCNc3ccc(Cl)nc3)cn2)cc1 [Compound 178]	30 to 50	–
Cc1ccc(OCCN(C)C(=O)Cn2cc(NC(=O)CCOc3ccc(C#N)cc3)cn2)cc1 [Compound 20, 3-(4-cyanophenoxy)-N-(1-(2-(methyl(2-(p-tolyloxy)ethyl)amino)-2-oxoethyl)-1H-pyrazol-4-yl)propanamide]	–	< 30
Cc1ccc(OCCN(C)C(=O)Cn2cc(NC(=O)[C@@H](C)CNc3ccnc(F)n3)cn2)cc1 [Compound 224]	> 50	–
Cc1nc(F)ccc1NCCC(=O)Nc1cnn(CC(=O)N(C)CCOc2ccn(C)n2)c1 [Compound 242]	< 30	–
Cc1ccc(OCCN(C)C(=O)Cn2cc(NC(=O)CCOc3ncc(F)cc3C)cn2)cc1 [Compound 68]	< 30	–

Compound	activation at 10 µM [1] [%]	activation at 10 µM [%]
CN(CCOc1ccncc1)C(=O)Cn1cc(NC(=O)CCOc2ccccc2F)cn1 [Compound 55]	< 30	–
Cc1ccc2sc(OCCN(C)C(=O)Cn3cc(NC(=O)CCNc4ccc(F)nc4C)cn3)nc2c1 [Compound 246]	< 30	–
Cc1ccc(OCCN(C)C(=O)Cn2cc(NC(=O)CCNc3ccnc(F)c3)cn2)cc1 [Compound 131]	30 to 50	–
Cc1ccc(OCCN(C)C(=O)Cn2cc(NC(=O)CCOc3ccncc3N)cn2)cc1 [Compound 112]	30 to 50	–
Cc1cnc(OCCN(C)C(=O)Cn2cc(NC(=O)CCNc3ccc(F)nc3C)cn2)cn1 [Compound 240]	< 30	–
Cc1ccc(OCCC(=O)Nc2cnn(CC(=O)N(C)CCOc3ccc(C)c(Cl)c3)c2)c(F)c1 [Compound 76]	< 30	–
Cc1ccc(OCCN(C)C(=O)Cn2cc(NC(=O)CCN(C)c3ccccc3)cn2)cc1 [Compound 21]	< 30	–
Cc1ccc(OCCN(C)C(=O)Cn2cc(NC(=O)CCNc3ncccc3C#N)cn2)cc1 [Compound 141]	< 30	–
Cc1ccc(OCCC(=O)Nc2cnn(CC(=O)N(C)CCOc3cc(F)c(C)c(F)c3)c2)c(F)c1 [Compound 85]	> 50	–
Cc1ccc(OCCN(C)C(=O)Cn2cc(NC(=O)CCNc3ncc(C#N)cn3)cn2)cc1 [Compound 125]	< 30	–
Cc1ccc(OCCN(C)C(=O)Cn2cc(NC(=O)CCOc3cccc(N)n3)cn2)cc1 [Compound 103]	> 50	–
Cc1ccc(OCCN(C)C(=O)Cn2cc(NC(=O)CCOC3CCC(C)(C)CC3)cn2)cc1 [Compound 3, 3-((4,4-dimethylcyclohexyl)oxy)-N-(1-(2-(methyl(2-(p-tolyloxy)ethyl)amino)-2-oxoethyl)-1H-pyrazol-4-yl)propanamide]	> 50	–
Cc1ccc(OCCN(C)C(=O)Cn2cc(NC(=O)CCNc3ccc4c(n3)OCO4)cn2)cc1 [Compound 286, 3-([1,3]dioxolo[4,5-b]pyridin-5-ylamino)-N-(1-(2-(methyl (2-(p-tolyloxy)ethyl)amino)-2-oxoethyl)-1H-pyrazol-4-yl)propanamide]	> 50	–
Cc1ccc(OCCN(C)C(=O)Cn2cc(N(C)C(=O)CCOc3ccccc3F)cn2)cc1 [Compound 51]	< 30	–
Cc1ccc(OCCN(C)C(=O)Cn2cc(NC(=O)COc3cccc4cccnc34)cn2)cc1 [Compound 287, N-methyl-2-(4-(2-(quinolin-8-yloxy)acetamido)-1H-pyrazol-1-yl)-N-(2-(p-tolyloxy)ethyl)acetamide]	–	< 30
Cc1ccc(OCCN(C)C(=O)Cn2cc(NC(=O)CCOc3c(C)ccnc3N)cn2)cc1 [Compound 17]	< 30	–
Cc1ccc(OCCN(C)C(=O)Cn2cc(NC(=O)CCNc3cnc(C#N)c(F)c3)cn2)cc1 [Compound 177]	30 to 50	–
Cc1ccc(OCCN(C)C(=O)Cn2cc(NC(=O)CCOc3c(F)cncc3F)cn2)cc1 [Compound 18]	> 50	–
Cc1ccc(OCCN(C)C(=O)Cn2cc(NC(=O)[C@@H](C)CNc3nccc(F)n3)cn2)cc1 [Compound 223]	> 50	–
Cc1ccc(OCC(C)N(C)C(=O)Cn2cc(NC(=O)CCOc3ccccc3F)cn2)cc1 (stereo not shown) [Compound 53]	> 50	–
COc1ccc(OCCN(C)C(=O)Cn2cc(NC(=O)CCOc3ccnc(F)c3)cn2)cc1 [Compound 96]	< 30	–

Compound	activation at 10 µM [1] [%]	activation at 10 µM [%]
Cc1ccc(OCC(C)(C)N(C)C(=O)Cn2cc(NC(=O)CCOc3ccccc3F)cn2)cc1 [Compound 63]	–	> 50
Cc1ccc(OCCN(C)C(=O)Cn2cc(NC(=O)C(C)(C)COc3ccccc3)cn2)cc1 [Compound 37, 2,2-dimethyl-N-(1-(2-(methyl(2-(p-tolyloxy)ethyl)amino)-2-oxoethyl)-1H-pyrazol-4-yl)-3-phenoxypropanamide]	–	< 30
Cc1ccc(OCCN(C)C(=O)Cn2cc(NC(=O)CCOc3ccc(F)cc3C(C)C)cn2)cc1 [Compound 66]	> 50	–
Cc1ccc(OCCN(C)C(=O)Cn2cc(NC(=O)CCOc3ccc4c(c3)OCO4)cn2)cc1 [Compound 33]	> 50	–
CN(CCOc1ccc(Cl)nc1)C(=O)Cn1cc(NC(=O)CCOc2ccccc2F)cn1 [Compound 45]	30 to 50	–
Cc1ccc(OCCN(C)C(=O)Cn2cc(NC(=O)CCNc3ncncc3C(C)C)cn2)cc1 [Compound 161]	> 50	–
CC(=O)c1cncc(F)c1NCCC(=O)Nc1cnn(CC(=O)N(C)CCOc2ccc(C)cc2)c1 [Compound 232]	> 50	–
CN(CCOc1ccc(C(F)(F)F)cc1)C(=O)Cn1cc(NC(=O)CCOc2ccncc2F)cn1 [Compound 19]	30 to 50	–
Cc1ccc(OCCN(C)C(=O)Cn2cc(NC(=O)CCNc3c(F)cncc3C3CC3)cn2)cc1 [Compound 250, 3-((3-cyclopropyl-5-fluoropyridin-4-yl)amino)-N-(1-(2-(methyl(2-(p-tolyloxy)ethyl)amino)-2-oxoethyl)-1H-pyrazol-4-yl)propanamide]	> 50	–
Cc1ccc(OCCN(C)C(=O)Cn2cc(NC(=O)COc3c(F)cncc3C(C)C)cn2)cc1 [Compound 274, 2-(4-(2-((3-fluoro-5-isopropylpyridin-4-yl)oxy)acetamido)-1H-pyrazol-1-yl)-N-methyl-N-(2-(p-tolyloxy)ethyl)acetamide]	< 30	–
Cc1ccc(OCCN(C)C(=O)Cn2cc(NC(=O)CCOc3cccnc3C(F)(F)F)cn2)cc1 [Compound 16]	30 to 50	–
CC(C)c1cncc(F)c1OCCC(=O)Nc1cnn(CC(=O)N(C)CCOc2ccc(C(F)(F)F)nc2)c1 [Compound 277]	> 50	–
Cc1ccc(OCCN(C)C(=O)Cn2cc(NC(=O)CCOc3c(F)cccc3Cl)cn2)cc1 [Compound 57]	30 to 50	–
Cc1ccc(OCCN(C)C(=O)Cn2cc(NC(=O)CCNc3cncc(Cl)n3)cn2)cc1 [Compound 151]	30 to 50	–
Cc1ccc(OCCC(=O)Nc2cnn(CC(=O)N(C)CCOc3cccc(OC(F)(F)F)c3)c2)c(F)c1 [Compound 69]	< 30	–
Cc1ccc(OCCC(=O)Nc2cnn(CC(=O)N(C)CCOc3ccc(F)cc3)c2)c(F)c1 [Compound 75]	< 30	–
Cc1ccc(OCCN(C)C(=O)Cn2cc(NC(=O)CNC(=O)c3ncc(F)cn3)cn2)cc1 [Compound 249]	< 30	–
Cc1ccc(OCCN(C)C(=O)Cn2cc(NC(=O)CCNc3ncc(C(F)(F)F)cc3Cl)cn2)cc1 [Compound 130]	< 30	–
Cc1cc(OCCN(C)C(=O)Cn2cc(NC(=O)CCNc3ccnc(F)n3)cn2)no1 [Compound 263]	< 30	–

Reference: patent US20260193236A1 (Protego Biopharma, Inc., priority 2022, published 2026)
